The subject of one assay is MDA-MB-231 tumors. Briefly: CAR-T/EC17 therapy, fixed dose and dose de-escalation, in mice bearing MDA-MB-231 tumors. Format: in vivo. To be noted: E2-CAR-T 30 million cells, EC17 dose de-escalation. The text has this:
The effect of EC17 dose de-escalation was investigated on the anti-tumor activity and the toxicity (body weight changes) of CAR-T therapy. Two different anti-fluorescein scFv were used for the CAR constructions (FIG. 1). The first construct of CAR contains the following domains: antiFL(FITC-E2)scFv-IgG4 hinge (CH2 (L235D, N297Q)-CH3)-CD28 TM-4-1BB-CD3z-T2A-EGFRt. The second construct of CAR contains the following domains: antiFL(FITC-4M5.3)scFv-IgG4 hinge (CH2 (L235D, N297Q)-CH3)-CD28 TM-4-1BB-CD3z-T2A-EGFRt. The nucleic acid sequence and amino acid sequence of the CAR of each construct are shown as SEQ ID NOS:1 to 4. Human T cells were isolated, activated and transduced with a lentiviral vector carrying the appropriate CAR gene. CD4+ T cells with the CAR-modification and CD8+ T cells with the CAR-modification were isolated and cultured separately in vitro for about 7 days. CD4+ CAR-T cells and CD8+ CAR-T cells were mixed at a 1:1 ratio before i.v. administration for animal studies.
The second construct 4M5.3-CAR (antiFL(FITC-4M5.3) scFv-IgG4 hinge (CH2 (L235D, N297Q)-CH3)-CD28 TM-4-1BB-CD3z-T2A-EGFRt) was also evaluated. Mice bearing MDA-MB-231 tumors (150-250 mm^3) were used for in vivo studies to evaluate 4M5.3-CAR-T cells. […]

The test system of another assay is HOS-FRα tumor. Briefly: CRS toxicity and sodium fluorescein rescue in HOS-FRα tumor-bearing mice. It is filed as in vivo. To be noted: i.v. ~95 mg/kg on day 13, plasma 6 hours later. How it is done:
All animal care and use were performed according to NIH guidelines and in compliance with protocols approved by the Purdue University Animal Use and Care Committee. Female 4 to 5-week-old NOD/SCID gamma (NSG™) mice (stock number: 005557) were purchased from The Jackson Laboratory (Bar Harbor, Me.). Unless specifically indicated, all animals were maintained on a FA-deficient diet (TestDiet, St. Louis, Mo.) upon arrival and throughout the study. To establish subcutaneous xenografts, MDA-MB-231 and HOS-FRα were implanted in the right flank region at 2.5×10^6 and 1×10^6 cells per animal, respectively. For intravenous xenografts, THP1-FRβ cells were inoculated at 5×10^6 cells per animal. Subcutaneous tumors were measured 2-3 times per week with a caliper and calculated using the ellipsoidal formula (length×width^2)/2. […] All animal doses (CAR-T cells, EC17, sodium fluorescein) were given intravenously.
Depending on the CAR-T cell dose and how EC17 is administered, tumor-bearing mice receiving FITC-specific CAR-T cells can experience severe CRS and varying degrees of body weight loss. Therefore, a CRS grading system (0-5 scale) was developed to empirically assess CRS toxicity from animals' gross morphology and social behavior to allow for better timing of CRS rescue. While grades 0 and 5 indicated normal (no CRS) or death (due to severe CRS), respectively, grades 1, 2, and 3-4 were considered mild, light-to-moderate, and severe CRS (FIG. 57A). In addition, all EC17 doses were intentionally given towards the end of any given day to allow potential CRS symptoms to develop overnight. On the days immediately following each EC17 dose, animals were scored and rescue agents such as sodium fluorescein, folic acid and leucovorin were used to mitigate CRS toxicity. In this particular instance, a batch of E2 CAR-T cells with a high EGFRt+CD4/CD8 ratio (˜93:7) was given to HOS-FRα tumor-bearing mice at a mixture of ˜2.5 million CD8 and ˜33 million CD4 on day 0 (FIG. 57B). […]

On to `O=C([O-])c1ccccc1-c1c2ccc(=O)cc-2oc2cc([O-])ccc12.[Na+].[Na+]` [sodium fluorescein, reference compound], for which, in the assay on MDA-MB-231 tumors, the “antitumor activity after NaFL rescue” value is recorded as “antitumor activity is maintained”. In the assay with HOS-FRα tumor, the “effect of rescue on CAR-T cell derived human cytokines” value is given as “acted very quickly to reduce CAR-T cell derived human cytokines”.

The values above are taken from US11779602B2, “Methods of use for CAR T cells” (ENDOCYTE, INC., priority 2018, dated 2023).
